Data on two molecules can be found in publication PMC8234218, “In Vitro and In Vivo Efficacies of the Linear and the Cyclic Version of an All-D-Enantiomeric Peptide Developed for the Treatment of Alzheimer’s Disease” (International Journal of Molecular Sciences, 2021).

Series [1] is described as follows: Proteolytic stability in simulated gastric fluid (SGF). Format: in vitro ADME. Here is the method: Both compounds have already been extensively studied with respect to their in vivo pharmacokinetic profiles. Here, we performed some additional test to investigate the proteolytic stability of the compounds in simulated gastric (SGF) and intestinal fluid (SIF) and human plasma and human liver microsomes. The experiments were performed as described previously. According to the guidelines of the European Pharmacopoeia 7.0, SGF and SIF were prepared. Plasma was purchased from Biotrend with K3-EDTA as an anticoagulant (Biotrend, Köln, Germany). Human liver microsomes were pooled from different donors and purchased from Sekisui XenoTech (Kansas City, KS, USA). In order to determine whether the compounds RD2D3 and cRD2D3 are stable or would be metabolized, 150 µM of each compound was incubated in triplicate for defined time points slightly shaking at 37 °C in the media described above (SGF and SIF: 4 and 8 h, plasma: 8, 24 and 48 h and microsomes: 8 and 24 h). Incubation was stopped by precipitating the proteins. For this, 3% trichloroacetic acid (w/v) was added to the respective sample under vortexing followed by a centrifugation step (14,000× g at 4 °C for 5 min). For analysis, supernatants containing the compounds were collected. The precipitated media without compound was used as a control and as reference for the quantification served each medium with compound where the reaction was stopped immediately by precipitating the proteins. All samples were analyzed by RP-HPLC as previously described.

The target of another series is T1, Aβ(1-42) (Homo sapiens, UniProt P05067).
T1 construct: Synthetic Aβ(1-42) and (Gln^22, Asn^23)-Amyloid β-Protein (1-40) (D/I Aβ) with >95% purity were purchased; purchased Bachem (Bubendorf, Switzerland); host or cells: chemical synthesis
Description: SPR, Aβ(1-42) immobilized, D-peptide as analyte. Format: binding. As to conditions: SPR Biacore T200, Aβ(1-42) immobilized on CM-5 chip by amine coupling, D-peptide analyte 0.625-20 µM, multicycle, 10 mM HEPES + 50 mM NaCl pH 7.4, 25 °C, steady-state Langmuir 1:1 fit (Fig. 1a). Here is the method: The dissociation constant (KD) of RD2D3 and cRD2D3 binding to Aβ(1-42) and D/I Aβ was determined by SPR spectroscopy using a Biacore T200 instrument (Biacore, GE Healthcare, Uppsala, Sweden). Aβ(1-42) or D/I Aβ was used as the ligand, while RD2D3 and cRD2D3 were used as the analyte or vice versa.
By using Aβ(1-42) or D/I Aβ as a ligand, it was immobilized onto a series S CM-5 sensor chip (GE Healthcare, Uppsala, Sweden) by amine coupling. In short, the flow cells were activated by a mixture of 50 mM N-hydroxysuccinimide (NHS) and 16.1 mM N-Ethyl-N’-(dimethylaminopropyl)carbodiimide (EDC) (XanTec, Düsseldorf, Germany) for 7 min. Aβ(1-42) or D/I Aβ were dissolved to a final concentration of 50 µg/mL in 10 mM sodium acetate pH 5 (AppliChem, Darmstadt, Germany) and injected over one of the activated flow cells to a final signal of 1700 RU. After the immobilization, the ligand and reference flow cells were quenched by injecting 1 M ethanolamine pH 8.5 (XanTec, Düsseldorf, Germany) for 7 min. […] The peptides were diluted in the running buffer to the following concentrations: 20 µM, 10 µM, 5 µM, 2.5 µM, 1.25 µM and 0.625 µM. All samples were injected over the flow cells for 180 s, followed by a dissociation step of 600 s with running buffer. Regeneration of the sensor chip was accomplished by a 45 s injection of 2 M of guanidinium hydrochloride (AppliChem, Darmstadt, Germany). […]

The target of another series is T2, D/I Aβ-oligomers (Homo sapiens, UniProt P05067, D694N/E693Q).
T2 construct: (Gln^22, Asn^23)-Amyloid β-Protein (1-40) (D/I Aβ); purchased Bachem (Bubendorf, Switzerland); host or cells: chemical synthesis
Description: QIAD assay, D/I Aβ oligomer elimination. It is filed as biochemical. As to conditions: 40 µM D/I Aβ preincubated 15 min, 10 µM D-peptide, 30 min coincubation, density gradient fractions 4-6, RP-HPLC UV 214 nm, N = 2-5. Here is the method:
(§1) According to Brener et al., a QIAD assay was performed in order to evaluate the Aβ(1-42) or D/I Aβ oligomer elimination efficacies of RD2D3 and cRD2D3 [18]. In short, 80 µM lyophilized Aβ(1-42) or 40 µM D/I Aβ was preincubated for 2 h or 15 min, respectively, to enrich Aβ-oligomers. Afterwards, either 20 µM RD2D3 or cRD2D3 for Aβ(1-42) or 10 µM RD2D3 or cRD2D3 for D/I Aβ were added to the preincubated solution and coincubated for additional 30 min. Subsequently, the samples were loaded on the top of a density gradient (5–50% (w/v) iodixanol (OptiPrep, Sigma-Aldrich, Darmstadt, Germany)) followed by an ultracentrifugation step (3 h at 4 °C and 259000× g (Optima TL-100, Beckman Coulter, Brea, CA, USA)). Following the ultracentrifugation, 14 fractions (140 µL each) were harvested by upward displacement. Fraction 15 contains the dissolved pellet in 6 M guanidine hydrochloride solution. Top fractions 1–2 contained Aβ-monomers, fractions 4–6 contained the Aβ-oligomers, which are of special interest, and the bottom fractions 11–14 contained high molecular weight (co-)precipitates or aggregated Aβ. Aβ(1-42) or D/I Aβ concentrations of each fraction were determined via analytical RP-HPLC and UV absorbance detection at 214 nm.

The next series concerns the target T3, Aβ(1-42)-oligomers (Homo sapiens, UniProt P05067).
T3 construct: Synthetic Aβ(1-42) and (Gln^22, Asn^23)-Amyloid β-Protein (1-40) (D/I Aβ) with >95% purity were purchased; purchased Bachem (Bubendorf, Switzerland); host or cells: chemical synthesis
Description: QIAD assay, Aβ(1-42) oligomer elimination. The conditions noted are these: 80 µM Aβ(1-42) preincubated 2 h, 20 µM D-peptide, 30 min coincubation, density gradient fractions 4-6, RP-HPLC UV 214 nm, N = 2-5. Format: biochemical. As for the experimental part:
as §1

Read-outs that look alike come from different tables or passages of the source. Where a SMILES comes first, the peptide text is derived from it. [ ]: non-standard residue; d: D form.

Usually Kd stands for the free concentration of one partner at which half of the binding sites on the other are occupied at equilibrium, for simple one-to-one binding. Consider `CC(C)C[C@H]1NC(=O)[C@@H](CCCNC(=N)N)NC(=O)[C@@H]([C@H](C)O)NC(=O)[C@@H](CCCNC(=N)N)NC(=O)[C@H]2CCCN2C(=O)[C@@H](CCCNC(=N)N)NC(=O)[C@@H](CCCNC(=N)N)NC(=O)[C@@H](CCCNC(=N)N)NC(=O)[C@@H](CCCNC(=N)N)NC(=O)[C@@H](CCCNC(=N)N)NC(=O)[C@@H](CCCNC(=N)N)NC(=O)[C@@H](CC(N)=O)NC(=O)[C@@H](Cc2c[nH]cn2)NC(=O)[C@@H]([C@H](C)O)NC(=O)[C@@H](Cc2c[nH]cn2)NC(=O)[C@@H](CC(C)C)NC(=O)[C@@H]([C@H](C)O)NC(=O)[C@H]2CCCN2C(=O)[C@@H](CCCNC(=N)N)NC(=O)[C@@H](CC(N)=O)NC(=O)[C@@H](CCCNC(=N)N)NC(=O)[C@@H](Cc2c[nH]cn2)NC(=O)[C@@H]([C@H](C)O)NC(=O)[C@@H](Cc2c[nH]cn2)NC1=O` [cRD2D3] (cyclo([dH][dN][dR][dR][dR][dR][dR][dR][dP][dR][dT][dR][dL][dH][dT][dH][dR][dN][dR][dP][dT][dL][dH][dT])), for which the remaining at 4 h, 150 µM in series [1] (simulated gastric fluid (SGF), simulated gastric fluid (Eur. Pharmacopoeia 7.0), 150 µM, 37 °C, 4 h, TCA precipitation, RP-HPLC, referenced to immediately stopped sample, mean of three independent experiments, read-out: Stability in SGF, 4 h) is 99.5%. For the same molecule, the remaining at 8 h, 150 µM in series [1] (simulated gastric fluid (SGF), simulated gastric fluid (Eur. Pharmacopoeia 7.0), 150 µM, 37 °C, 8 h, TCA precipitation, RP-HPLC, referenced to immediately stopped sample, mean of three independent experiments, read-out: Stability in SGF, 8 h) is 99.7%. The Kd on Aβ(1-42) was found to be 10.4 ± 0.61 µM. Further, on D/I Aβ-oligomers, the “Elimination of toxic D/I Aβ-oligomers (QIAD)” value is 100%. At Aβ(1-42)-oligomers, the “Elimination of toxic Aβ(1-42)-oligomers (QIAD)” value is recorded as 80%.

In series [1] (simulated gastric fluid), `CC(C)C[C@@H](NC(=O)[C@@H](CCCNC(=N)N)NC(=O)[C@H](NC(=O)[C@@H](CCCNC(=N)N)NC(=O)[C@H]1CCCN1C(=O)[C@@H](CCCNC(=N)N)NC(=O)[C@@H](CCCNC(=N)N)NC(=O)[C@@H](CCCNC(=N)N)NC(=O)[C@@H](CCCNC(=N)N)NC(=O)[C@@H](CCCNC(=N)N)NC(=O)[C@@H](CCCNC(=N)N)NC(=O)[C@@H](CC(N)=O)NC(=O)[C@@H](Cc1c[nH]cn1)NC(=O)[C@H](NC(=O)[C@@H](Cc1c[nH]cn1)NC(=O)[C@@H](CC(C)C)NC(=O)[C@H](NC(=O)[C@H]1CCCN1)[C@H](C)O)[C@H](C)O)[C@H](C)O)C(=O)N[C@H](Cc1c[nH]cn1)C(=O)N[C@@H](C(=O)N[C@H](Cc1c[nH]cn1)C(=O)N[C@H](CCCNC(=N)N)C(=O)N[C@H](CC(N)=O)C(=O)N[C@H](CCCNC(=N)N)C(N)=O)[C@H](C)O` [RD2D3] (H-[dP][dT][dL][dH][dT][dH][dN][dR][dR][dR][dR][dR][dR][dP][dR][dT][dR][dL][dH][dT][dH][dR][dN][dR]-NH2) had a remaining at 4 h, 150 µM of 100% and a remaining at 8 h, 150 µM of 100%. On Aβ(1-42), the Kd turned out to be 7.01 ± 0.31 µM. The “Elimination of toxic D/I Aβ-oligomers (QIAD)” value at D/I Aβ-oligomers was 94%.
